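Five compound concentrations were applied to cells in 96-well plates for 48 hours; endpoints were derived by simple linear interpolation of the resulting dose-response curve. GI50: concentration for 50% inhibition of growth. TGI denotes the concentration required for complete inhibition of growth.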
How the values were obtained:
Assay in all cases: DTP human tumour cell line panel, 48 h
[1] = system: DMS 114 small cell lung
[2] = system: DMS 273 small cell lung
[3] = system: LXFL 529 NSCLC
[4] = system: SNB-78 CNS
[5] = system: BT-549 breast
[6] = system: HS 578T breast
[7] = system: PC-3 prostate
[8] = system: T-47D breast
[9] = system: MCF7 breast
[10] = system: MDA-MB-231 breast

SMILES | TGI [1] [µM] | TGI [2] [µM] | TGI [3] [µM] | TGI [4] [µM] | other results
Cc1c2ccncc2c(C)c2c1[nH]c1ccc(O)c(OCC(F)(F)F)c12 | 10.7 | 4.87 | 15.5 | 18.2 | 
COc1ccc(-c2c(C3=NCCCN3)nnn2-c2ccc([N+](=O)[O-])cc2)cc1 | > 100 | > 100 | > 100 | > 100 | 
C=C1C(=O)C23C(O)C1CC[C@H]2C12CCCC(C)(COC(C)=O)[C@H]1[C@H](O)[C@]3(O)OC2 (some centres undefined) | 4.35 | 4.22 | 1.69 | 2.96 | TGI [5]: 2.86 µM; TGI [6]: 9.99 µM; TGI [7]: 3.78 µM; TGI [8]: 9.59 µM
Cn1c(=O)nc2n(-c3ccc(Cl)c(C(F)(F)F)c3)c3ccccc3nc-2c1=O | 40.6 | > 100 | > 100 | > 100 | 
COC(=O)C1C(=O)N(CCc2c[nH]c3ccccc23)C[C@@H]2CCC(=O)C[C@H]12 (some centres undefined) | > 100 | > 100 | > 100 | > 100 | 
COc1ccc(C2Oc3c(c(O)cc4c3[C@H](c3ccc(O)cc3O)[C@H](O)C(c3ccc(O)c(O)c3)O4)C[C@@H]2O)cc1O (some centres undefined) | > 100 | > 100 | > 100 | > 100 | 
C[C@]12C/C(=C/O)C(=O)C(O)=C1CC[C@@H]1C2CC[C@@]2(C)C1CC[C@@H]2O (some centres undefined) | 37.5 | 51.1 | 31.7 | 47.3 | 
Cc1ccccc1/C=C/C(=O)c1ccccc1 | 48 | 61.2 | 38.6 | 39.2 | 
CCCCCCCCCCCC1CC(=O)NCCCN(C)CCCCN(C)CCCN1C (centres undefined) | 3.19 | 2.61 | 3.16 | 3.27 | 
C=C1C2Oc3ccccc3C1N(c1ccccc1)O2 (centres undefined) | 79 |  | > 100 |  | 
COc1ccccc1NC(=O)/C(=C/c1ccccc1)C(C)=O | > 100 |  | > 100 | 44.6 | 
Cc1cccc(C)c1N1C(=O)C(=O)C(c2nc3ccccc3s2)C(=Nc2cccc3c(=O)[nH][nH]c(=O)c23)C1=O (centres undefined) |  | > 100 | > 100 | > 100 | 
O=S1CSSC1 | 19.1 | 25.1 | 32.4 | 62 | 
c1ccc2[nH]c(CNc3ccc(C4C[Se]N=N4)cc3)nc2c1 (centres undefined) | 72.6 | > 100 | 67.7 |  | 
C=CCNC(=O)N(CCC)CCCC(NC(C)=O)C(=O)NCc1ccccc1 (centres undefined) | > 100 | > 100 | > 100 |  | 
Cc1nc(-c2cccnc2)sc1C(=O)/C=C/c1cccc([N+](=O)[O-])c1 | > 100 | > 100 |  |  | 

SMILES | TGI [1] [µM] | TGI [2] [µM] | TGI [3] [µM] | TGI [4] [µM] | other results
O=C1C2=C(CCC2)Nc2cccc3ncn1c23 | > 100 | > 100 | > 100 | > 100 | 
CC(=O)n1c(=O)c2cc3c(=O)n(-c4cccc(C#N)c4)c(=O)c3cc2c1=O | > 100 | > 100 | > 100 | > 100 | 
CC1=NN(C(=O)c2ccncc2)C(=O)C1N=Nc1ccc(F)cc1 (centres undefined) | > 100 | > 100 | > 100 | > 100 | 
N.N.N.N.N.O=S(=O)([O-])S(=O)(=O)[O-].[Co+3] |  | > 100 | > 100 | > 100 | GI50 [2]: > 100 µM; GI50 [3]: > 100 µM; GI50 [4]: > 100 µM
O=c1[nH]c2cc([N+](=O)[O-])ccc2nc1/C(=N\Nc1ccccc1)C(O)c1ccc2c(c1)OCO2 (centres undefined) | > 100 | > 100 | > 100 | > 100 | 
CC(C)(C)NCC(COc1ccc([N+](=O)[O-])cc1)OP(c1ccccc1)c1ccccc1 (centres undefined) | 83.9 | > 100 | > 100 | > 100 | 
Nc1ccccc1C(=O)C(Br)C(Br)c1ccc2c(c1)OCO2 (centres undefined) | 40.2 | 34 | 46 | 81 | 
Cc1cccc(C)c1N1C(=O)C(=O)C(c2nc3ccccc3s2)/C(=N/NC(=O)NN)C1=O (centres undefined) | > 100 | > 100 | > 100 | > 100 | 
CC1(C)CC(=O)C(CC2C(=O)c3ccccc3C2=O)C(=O)C1 | > 100 | > 100 | > 100 | > 100 | 
CC1(O)CCn2c(=O)c3cc4ccccc4cc3c(=O)n2C1O (centres undefined) | > 100 | > 100 | > 100 |  | 
CN(C)C(=S)Nc1nnc(Nc2ccccc2)s1 |  | > 100 | > 100 | > 100 | 
O=C1CNS(=O)(=O)N1 | > 100 | > 100 | > 100 | > 100 | 
Cc1c(C)c(CC(=O)N2CC2)c(C)c(C)c1CC(=O)N1CC1 | 24.5 | 13.2 | 37.9 | 57.3 | TGI [5]: 51.4 µM; TGI [6]: 81.9 µM; TGI [9]: 63.4 µM; TGI [10]: 48.1 µM; TGI [7]: 58.2 µM; TGI [8]: 80.5 µM
Cc1ccc(C)c(N2C(=O)C(=O)C(c3nc4ccccc4s3)C(=Nc3cccc4c(=O)[nH][nH]c(=O)c34)C2=O)c1 (centres undefined) | > 100 | > 100 | > 100 |  | 
O=C(CC1(O)C(=O)Nc2c(Cl)ccc(Cl)c21)c1ccc(Cl)cc1Cl (centres undefined) | 37.4 | 37.8 | 29.3 | > 100 | 
O=C1[C@H]2ON(c3ccccc3)C(c3ccco3)[C@H]2C(=O)N1c1ccc(Cc2ccc(N3C(=O)[C@@H]4ON(c5ccccc5)C(c5ccco5)[C@@H]4C3=O)cc2)cc1 (some centres undefined) | > 100 | > 100 | > 100 | > 100 | 

— PubChem BioAssay (NCI)
